Data published in US8946203B2, “Benzodioxane inhibitors of leukotriene production” (Boehringer Ingelheim International GmbH, priority 2012, dated 2015).

Molecular target: T1, human LTA4 hydrolase (Homo sapiens, UniProt P09960)
T1 sequence (P09960 1-611): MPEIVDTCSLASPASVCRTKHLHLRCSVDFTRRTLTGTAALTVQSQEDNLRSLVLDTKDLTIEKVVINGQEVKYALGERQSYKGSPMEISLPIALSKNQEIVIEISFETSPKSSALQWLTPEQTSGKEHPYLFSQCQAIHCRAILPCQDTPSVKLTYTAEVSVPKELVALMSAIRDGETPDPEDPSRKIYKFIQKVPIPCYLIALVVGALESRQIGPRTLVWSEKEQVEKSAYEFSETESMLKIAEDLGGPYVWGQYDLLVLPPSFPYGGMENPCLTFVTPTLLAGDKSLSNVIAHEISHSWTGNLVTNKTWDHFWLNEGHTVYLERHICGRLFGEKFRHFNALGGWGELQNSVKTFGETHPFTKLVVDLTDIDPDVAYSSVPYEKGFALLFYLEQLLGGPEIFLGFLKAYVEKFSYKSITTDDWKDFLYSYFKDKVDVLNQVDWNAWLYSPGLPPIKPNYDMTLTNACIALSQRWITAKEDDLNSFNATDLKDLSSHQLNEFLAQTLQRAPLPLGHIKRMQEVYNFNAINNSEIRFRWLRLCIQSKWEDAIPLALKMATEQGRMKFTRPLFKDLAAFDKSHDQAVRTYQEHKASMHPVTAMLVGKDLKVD
Experiment: LTA4H Enzyme assay (cleavage of Arg-AMC, fluorescence)
Type: biochemical
Details: not given
Protocol: The compounds of the invention are assessed for the ability to interact with human LTA4 hydrolase in an enzymatic assay that measures the ability of the enzyme to cleave the peptide bond of arginyl-aminomethylcoumarin (Arg-AMC). LTA4H Enzyme (1 nM final), Arg-AMC substrate (50 μM final), and compound are combined in a reaction buffer (50 mM Tris-HCl (pH 7.5), 100 mM KCl, 0.5% bovine serum albumin) at room temperature for 1 h. The formation of product is assessed by measuring the fluorescence of aminomethylcoumarin product (excitation wavelength 380 nm/emission wavelength 460 nm).

| SMILES | IC50 [nM] |
| --- | --- |
| CN(C)CCN(C)Cc1ccc([C@H]2COc3ccccc3O2)cc1 [Example 79, N-{4-[(2S)-2,3-dihydro-1,4-benzodioxin-2-yl]benzyl}-N,N′,N′-trimethylethane-1,2-diamine] | 0.51 |

Same assay, conditions: LTA4H Enzyme 1 nM, Arg-AMC substrate 50 μM, room temperature 1 h, fluorescence; read-out: IC50 values of LTA4H Enzyme assay

| IC50 [nM] | SMILES |
| --- | --- |
| 3.03 | F[C@H]1CCN(Cc2ccc(C3COc4ccccc4O3)cc2)C1 (mixture of isomers) [Example 115, (3S)-1-[4-(2,3-dihydro-1,4-benzodioxin-2-yl)benzyl]-3-fluoropyrrolidine] |
| 0.43 | OC1CCN(Cc2ccc([C@H]3COc4ccccc4O3)cc2)CC1 (single isomer, unassigned) [Example 192] |
| 0.15 | O=C1NCCC12CCN(Cc1ccc([C@H]3COc4ccccc4O3)cc1)CC2 (single isomer, unassigned) [Example 194] |
| 1.59 | O=C1NCCC12CCN(Cc1ccc([C@@H]3COc4ccccc4O3)cc1)CC2 (single isomer, unassigned) [Example 195] |
| 0.32 | CN(C)C(=O)C1CCN(Cc2ccc([C@H]3COc4ccccc4O3)cc2)CC1 [Example 8, 1-{4-[(2S)-2,3-dihydro-1,4-benzodioxin-2-yl]benzyl}-N,N-dimethylpiperidine-4-carboxamide] |
| 0.36 | CN(Cc1ccc([C@H]2COc3ccccc3O2)cc1)C1CCN(S(C)(=O)=O)CC1 [Example 13, N-{4-[(2S)-2,3-dihydro-1,4-benzodioxin-2-yl]benzyl}-N-methyl-1-(methylsulfonyl)piperidin-4-amine] |
| 1.3 | O=C(O)[C@H]1CCCN(Cc2ccc([C@H]3COc4ccccc4O3)cc2)C1 [Example 20, (3S)-1-{4-[(2S)-2,3-dihydro-1,4-benzodioxin-2-yl]benzyl}piperidin-3-carboxylic acid] |
| 4.43 | OC(C1CCN(Cc2ccc([C@H]3COc4ccccc4O3)cc2)CC1)C(F)(F)F (stereo partly drawn) [Example 21, 1-(1-{4-[(2S)-2,3-dihydro-1,4-benzodioxin-2-yl]benzyl}piperidin-4-yl)-2,2,2-trifluoroethanol] |
| 31 | CN(CC(=O)O)Cc1ccc([C@H]2COc3ccccc3O2)cc1 [Example 60, N-{4-[(2S)-2,3-dihydro-1,4-benzodioxin-2-yl]benzyl}-N-methylglycine] |
| 1.79 | NC(=O)[C@H]1CC[C@H](NCc2ccc([C@H]3COc4ccccc4O3)cc2)CC1 [Example 66, trans-4-({4-[(2S)-2,3-dihydro-1,4-benzodioxin-2-yl]benzyl}amino)cyclohexane-carboxamide] |
| 0.57 | OCCC1CCN(Cc2ccc([C@H]3COc4ccccc4O3)cc2)CC1 [Example 70, 2-(1-{4-[(2S)-2,3-dihydro-1,4-benzodioxin-2-yl]benzyl}piperidin-4-yl)ethanol] |
| 1.8 | COCC(C)NCc1ccc([C@H]2COc3ccccc3O2)cc1 (stereo partly drawn) [Example 72, N-{4-[(2S)-2,3-dihydro-1,4-benzodioxin-2-yl]benzyl}-1-methoxypropan-2-amine] |
| 1 | CCN(C)Cc1ccc([C@H]2COc3ccccc3O2)cc1 [Example 74, N-{4-[(2S)-2,3-dihydro-1,4-benzodioxin-2-yl]benzyl}-N-methylethanamine] |
| 4.51 | CN(C)Cc1ccc([C@H]2COc3ccccc3O2)cc1 [Example 75, 1-{4-[(2S)-2,3-dihydro-1,4-benzodioxin-2-yl]phenyl}-N,N-dimethylmethanamine] |
| 0.18 | CC1CCCN1Cc1ccc([C@H]2COc3ccccc3O2)cc1 (stereo partly drawn) [Example 77, 1-{4-[(2S)-2,3-dihydro-1,4-benzodioxin-2-yl]benzyl}-2-methylpyrrolidine] |
| 1.4 | OC1CCCN(Cc2ccc([C@H]3COc4ccccc4O3)cc2)C1 (stereo partly drawn) [Example 78, 1-{4-[(2S)-2,3-dihydro-1,4-benzodioxin-2-yl]benzyl}piperidin-3-ol] |
| 0.2 | CC(=O)NC1CCN(Cc2ccc([C@H]3COc4ccccc4O3)cc2)C1 (stereo partly drawn) [Example 82, N-(1-{4-[(2S)-2,3-dihydro-1,4-benzodioxin-2-yl]benzyl}pyrrolidin-3-yl)acetamide] |

The next lines start with the molecule.

| SMILES | IC50 [nM] |
| --- | --- |
| OC1CCN(Cc2ccc([C@@H]3COc4ccccc4O3)cc2)CC1 (single isomer, unassigned) [Example 193] | 5.35 |
| c1ccc2c(c1)OC[C@H](c1ccc(CN3CCCC3)cc1)O2 (single isomer, unassigned) [Example 196] | 0.39 |
| c1ccc2c(c1)OC[C@@H](c1ccc(CN3CCCC3)cc1)O2 (single isomer, unassigned) [Example 197] | 2.69 |
| c1ccc2c(c1)OC[C@H](c1ccc(CN3CCOCC3)cc1)O2 (single isomer, unassigned) [Example 198] | 2.28 |
| c1ccc2c(c1)OC[C@@H](c1ccc(CN3CCOCC3)cc1)O2 (single isomer, unassigned) [Example 199] | 40.1 |
| O=C(O)[C@@H]1CCCN(Cc2ccc([C@H]3COc4ccccc4O3)cc2)C1 [Example 19, (3R)-1-{4-[(2S)-2,3-dihydro-1,4-benzodioxin-2-yl]benzyl}piperidine-3-carboxylic acid] | 0.73 |
| OC(C1CCN(Cc2ccc([C@H]3COc4ccccc4O3)cc2)CC1)(C(F)(F)F)C(F)(F)F [Example 22, 2-(1-{4-[(2S)-2,3-dihydro-1,4-benzodioxin-2-yl]benzyl}piperidin-4-yl)-1,1,1,3,3,3-hexafluoropropan-2-ol] | 200 |
| O=C(O)C1CN(Cc2ccc([C@H]3COc4ccccc4O3)cc2)Cc2ccccc21 (stereo partly drawn) [Example 56, 2-{4-[(2S)-2,3-dihydro-1,4-benzodioxin-2-yl]benzyl}-1,2,3,4-tetrahydroisoquinoline-4-carboxylic acid] | 6.08 |
| O=C(O)[C@@H]1CC[C@H](NCc2ccc([C@H]3COc4ccccc4O3)cc2)C1 [Example 57, (1R,3S)-3-({4-[(2S)-2,3-dihydro-1,4-benzodioxin-2-yl]benzyl}amino)cyclopentane-carboxylic acid] | 13.7 |
| CC(C)(C)C(CC(=O)O)NCc1ccc([C@H]2COc3ccccc3O2)cc1 (stereo partly drawn) [Example 58, 3-({4-[(2S)-2,3-dihydro-1,4-benzodioxin-2-yl]benzyl}amino)-4,4-dimethylpentanoic acid] | 1.36 |
| O=C(O)C1(NCc2ccc([C@H]3COc4ccccc4O3)cc2)CCCC1 [Example 59, 1-({4-[(2S)-2,3-dihydro-1,4-benzodioxin-2-yl]benzyl}amino)cyclopentane-carboxylic acid] | 89.2 |
| CC(=O)N1CC[C@H](NCc2ccc([C@H]3COc4ccccc4O3)cc2)C1 [Example 65, 1-[(3S)-3-({4-[(2S)-2,3-dihydro-1,4-benzodioxin-2-yl]benzyl}amino)pyrrolidin-1-yl]ethanone] | 1.15 |
| CC(C)NCc1ccc([C@H]2COc3ccccc3O2)cc1 [Example 71, N-{4-[(2S)-2,3-dihydro-1,4-benzodioxin-2-yl]benzyl}propan-2-amine] | 1.88 |
| CCCNCc1ccc([C@H]2COc3ccccc3O2)cc1 [Example 73, N-{4-[(2S)-2,3-dihydro-1,4-benzodioxin-2-yl]benzyl}propan-1-amine] | 3.65 |
| O[C@H]1CC[C@H](NCc2ccc([C@H]3COc4ccccc4O3)cc2)CC1 [Example 76, trans-4-({4-[(2S)-2,3-dihydro-1,4-benzodioxin-2-yl]benzyl}amino)cyclohexanol] | 1.9 |
| OCCN(Cc1ccc([C@H]2COc3ccccc3O2)cc1)C1CCCCC1 [Example 80, 2-(cyclohexyl{4-[(2S)-2,3-dihydro-1,4-benzodioxin-2-yl]benzyl}amino)ethanol] | 0.71 |
